Measured values published in US12479816B2, “20-HETE formation inhibitors” (UNIVERSITY OF PITTSBURGH—OF THE COMMONWEALTH SYSTEM OF …, priority 2019, dated 2025).

system: 20-HETE formation (CYP4) in HLM; test: IC50 determination, 20-HETE formation in HLM; type: biochemical, human; conditions: HLM 300 μg/ml, AA 100 μM, 12 concentrations
In short: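 Human or rat liver microsomes (300 μg/ml) with arachidonic acid 100 μM, NADPH 1 mM, compound at 12 concentrations (0.1 nM-50 μM) in phosphate/MgCl2 buffer, 20 min at 37 °C. 20-HETE quantified by UPLC-MS/MS against d6 internal standard, normalised to vehicle; IC50 by nonlinear regression.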

SMILES	IC50 [µM]
c1ccc(C2CCN(c3cn[nH]c3)CC2)cc1 [Compound 1, 4-Phenyl-1-(1H-pyrazol-4-yl)piperidine]	0.19
c1ccc(CC2CCN(c3cn[nH]c3)CC2)cc1 [Compound 3, 4-Benzyl-1-(1H-pyrazol-4-yl)piperidine]	0.05
COc1ccc(C2CCN(c3ccn[nH]3)CC2)cc1 [Compound 19, 4-(4-Methoxyphenyl)-1-(1H-pyrazol-5-yl)piperidine]	0.14
COc1ccc(C2CCN(c3cn[nH]c3)CC2)cc1 [Compound 20, 4-(4-Methoxyphenyl)-1-(1H-pyrazol-4-yl)piperidine]	0.07
CC(=O)N(C)c1ccc(C2CCN(c3cn[nH]c3)CC2)cc1 [Compound 28, N-(4-(1-(1H-Pyrazol-4-yl)piperidin-4-yl)phenyl)-N-methylacetamide]	0.1
Cc1cccc(C2CCN(c3cn[nH]c3)CC2)c1 [Compound 34, 1-(1H-Pyrazol-4-yl)-4-(m-tolyl)piperidine]	0.11
c1ccc(C2CCN(c3ccn[nH]3)CC2)cc1 [Compound 54, 4-Phenyl-1-(1H-pyrazol-5-yl)piperidine]	0.44
O=C1CCCN1Cc1ccc(C2CCN(c3cn[nH]c3)CC2)cc1 [Compound 83, 1-(4-(1-(1H-Pyrazol-4-yl)piperidin-4-yl)benzyl)pyrrolidin-2-one]	0.0542
Clc1ccc(CC2CCN(c3cn[nH]c3)CC2)cc1 [Compound 93, 4-(4-Chlorobenzyl)-1-(1H-pyrazol-4-yl)piperidine]	0.017
O=C1CCCN1c1ccc(C2CCN(c3cn[nH]c3)CC2)cc1 [Compound 100, 1-(4-(1-(1H-Pyrazol-4-yl)piperidin-4-yl)phenyl)pyrrolidin-2-one]	0.054

system: 20-HETE formation (CYP4) in HLM; test: Inhibition of 20-HETE formation at 250 or 500 nM in HLM microsomal incubations; type: biochemical, human; conditions: 250 nM compound; HLM 300 μg/ml, AA 100 μM, 20 min
In short: (§1)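 Microsomes (300 μg/ml) or rCYP4F2 (25 pmol/mL) were incubated with 100 μM arachidonic acid, 1 mM NADPH and test compound in 0.12 M potassium phosphate with 5 mM MgCl2 for 20 min at 37° C. 20-HETE was quantified by UPLC-MS/MS with 20-HETE-d6 internal standard and expressed as percent of vehicle (n=3).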

SMILES	HLM % inh. @ 250 nM [%]
c1ccc(C2CCN(c3cn[nH]c3)CC2)cc1 [Compound 1, 4-Phenyl-1-(1H-pyrazol-4-yl)piperidine]	64.29
c1ccc(C2CCN(c3ccn[nH]3)CC2)cc1 [Compound 54, 4-Phenyl-1-(1H-pyrazol-5-yl)piperidine]	31.60

same assay, conditions: 500 nM compound; HLM 300 μg/ml, AA 100 μM, 20 min

SMILES	HLM % inh. @ 500 nM [%]
c1ccc(C2CCN(c3cn[nH]c3)CC2)cc1 [Compound 1, 4-Phenyl-1-(1H-pyrazol-4-yl)piperidine]	78.80
c1ccc(CC2CCN(c3cn[nH]c3)CC2)cc1 [Compound 3, 4-Benzyl-1-(1H-pyrazol-4-yl)piperidine]	77.30
COc1ccc(C2CCN(c3ccn[nH]3)CC2)cc1 [Compound 19, 4-(4-Methoxyphenyl)-1-(1H-pyrazol-5-yl)piperidine]	72.30
COc1ccc(C2CCN(c3cn[nH]c3)CC2)cc1 [Compound 20, 4-(4-Methoxyphenyl)-1-(1H-pyrazol-4-yl)piperidine]	73.10
CC(=O)N(C)c1ccc(C2CCN(c3cn[nH]c3)CC2)cc1 [Compound 28, N-(4-(1-(1H-Pyrazol-4-yl)piperidin-4-yl)phenyl)-N-methylacetamide]	75.00
Cc1cccc(C2CCN(c3cn[nH]c3)CC2)c1 [Compound 34, 1-(1H-Pyrazol-4-yl)-4-(m-tolyl)piperidine]	80.00
c1ccc(C2CCN(c3ccn[nH]3)CC2)cc1 [Compound 54, 4-Phenyl-1-(1H-pyrazol-5-yl)piperidine]	47.40
O=C1CCCN1Cc1ccc(C2CCN(c3cn[nH]c3)CC2)cc1 [Compound 83, 1-(4-(1-(1H-Pyrazol-4-yl)piperidin-4-yl)benzyl)pyrrolidin-2-one]	91.6
Clc1ccc(CC2CCN(c3cn[nH]c3)CC2)cc1 [Compound 93, 4-(4-Chlorobenzyl)-1-(1H-pyrazol-4-yl)piperidine]	93.03
O=C1CCCN1c1ccc(C2CCN(c3cn[nH]c3)CC2)cc1 [Compound 100, 1-(4-(1-(1H-Pyrazol-4-yl)piperidin-4-yl)phenyl)pyrrolidin-2-one]	76.1

target: T1, rCYP4F2 (Homo sapiens, UniProt P78329); test: Inhibition of 20-HETE formation at 250 or 500 nM in rCYP4F2 incubations; type: biochemical; conditions: 250 nM compound; rCYP4F2 25 pmol/mL; read-out: rCYP4F2 % inh. @ 250 nM
T1 sequence (P78329 5-520): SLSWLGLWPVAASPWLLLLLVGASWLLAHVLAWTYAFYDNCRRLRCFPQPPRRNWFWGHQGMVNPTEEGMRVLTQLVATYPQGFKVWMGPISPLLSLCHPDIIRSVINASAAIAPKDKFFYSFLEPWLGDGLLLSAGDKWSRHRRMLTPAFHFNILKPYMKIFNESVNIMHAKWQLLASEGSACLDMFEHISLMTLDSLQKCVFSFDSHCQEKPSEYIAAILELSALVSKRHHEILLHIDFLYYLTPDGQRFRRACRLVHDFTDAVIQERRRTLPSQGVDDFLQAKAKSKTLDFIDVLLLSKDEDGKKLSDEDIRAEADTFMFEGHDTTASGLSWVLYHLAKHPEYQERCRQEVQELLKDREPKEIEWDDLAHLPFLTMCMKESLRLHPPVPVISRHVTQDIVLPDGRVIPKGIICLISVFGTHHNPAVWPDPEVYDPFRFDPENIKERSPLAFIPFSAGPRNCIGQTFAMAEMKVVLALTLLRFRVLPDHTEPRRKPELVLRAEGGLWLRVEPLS
In short: as §1

SMILES	inhibition at 0.25 µM [%]
c1ccc(C2CCN(c3cn[nH]c3)CC2)cc1 [Compound 1, 4-Phenyl-1-(1H-pyrazol-4-yl)piperidine]	78.5
c1ccc(C2CCN(c3ccn[nH]3)CC2)cc1 [Compound 54, 4-Phenyl-1-(1H-pyrazol-5-yl)piperidine]	53.6

same assay, conditions: 500 nM compound; rCYP4F2 25 pmol/mL; read-out: rCYP4F2 % inh. @ 500 nM

SMILES	inhibition at 0.5 µM [%]
c1ccc(CC2CCN(c3cn[nH]c3)CC2)cc1 [Compound 3, 4-Benzyl-1-(1H-pyrazol-4-yl)piperidine]	77
COc1ccc(C2CCN(c3ccn[nH]3)CC2)cc1 [Compound 19, 4-(4-Methoxyphenyl)-1-(1H-pyrazol-5-yl)piperidine]	41.4
COc1ccc(C2CCN(c3cn[nH]c3)CC2)cc1 [Compound 20, 4-(4-Methoxyphenyl)-1-(1H-pyrazol-4-yl)piperidine]	67.7
CC(=O)N(C)c1ccc(C2CCN(c3cn[nH]c3)CC2)cc1 [Compound 28, N-(4-(1-(1H-Pyrazol-4-yl)piperidin-4-yl)phenyl)-N-methylacetamide]	58
Cc1cccc(C2CCN(c3cn[nH]c3)CC2)c1 [Compound 34, 1-(1H-Pyrazol-4-yl)-4-(m-tolyl)piperidine]	86
O=C1CCCN1Cc1ccc(C2CCN(c3cn[nH]c3)CC2)cc1 [Compound 83, 1-(4-(1-(1H-Pyrazol-4-yl)piperidin-4-yl)benzyl)pyrrolidin-2-one]	96.2
Clc1ccc(CC2CCN(c3cn[nH]c3)CC2)cc1 [Compound 93, 4-(4-Chlorobenzyl)-1-(1H-pyrazol-4-yl)piperidine]	97
O=C1CCCN1c1ccc(C2CCN(c3cn[nH]c3)CC2)cc1 [Compound 100, 1-(4-(1-(1H-Pyrazol-4-yl)piperidin-4-yl)phenyl)pyrrolidin-2-one]	81.2

system: 20-HETE formation (CYP4) in RLM; test: Inhibition of 20-HETE formation at 250 or 500 nM in RLM microsomal incubations; type: biochemical, rat; conditions: 250 nM compound; RLM 300 μg/ml
In short: as §1

SMILES	RLM % inh. @ 250 nM [%]
c1ccc(C2CCN(c3cn[nH]c3)CC2)cc1 [Compound 1, 4-Phenyl-1-(1H-pyrazol-4-yl)piperidine]	27.40
c1ccc(C2CCN(c3ccn[nH]3)CC2)cc1 [Compound 54, 4-Phenyl-1-(1H-pyrazol-5-yl)piperidine]	12.00

same assay, conditions: 500 nM compound; RLM 300 μg/ml

SMILES	RLM % inh. @ 500 nM [%]
c1ccc(CC2CCN(c3cn[nH]c3)CC2)cc1 [Compound 3, 4-Benzyl-1-(1H-pyrazol-4-yl)piperidine]	2.40
COc1ccc(C2CCN(c3ccn[nH]3)CC2)cc1 [Compound 19, 4-(4-Methoxyphenyl)-1-(1H-pyrazol-5-yl)piperidine]	31.80
COc1ccc(C2CCN(c3cn[nH]c3)CC2)cc1 [Compound 20, 4-(4-Methoxyphenyl)-1-(1H-pyrazol-4-yl)piperidine]	25.90
CC(=O)N(C)c1ccc(C2CCN(c3cn[nH]c3)CC2)cc1 [Compound 28, N-(4-(1-(1H-Pyrazol-4-yl)piperidin-4-yl)phenyl)-N-methylacetamide]	52.00
Cc1cccc(C2CCN(c3cn[nH]c3)CC2)c1 [Compound 34, 1-(1H-Pyrazol-4-yl)-4-(m-tolyl)piperidine]	44.00
O=C1CCCN1Cc1ccc(C2CCN(c3cn[nH]c3)CC2)cc1 [Compound 83, 1-(4-(1-(1H-Pyrazol-4-yl)piperidin-4-yl)benzyl)pyrrolidin-2-one]	49.60
Clc1ccc(CC2CCN(c3cn[nH]c3)CC2)cc1 [Compound 93, 4-(4-Chlorobenzyl)-1-(1H-pyrazol-4-yl)piperidine]	64.30
O=C1CCCN1c1ccc(C2CCN(c3cn[nH]c3)CC2)cc1 [Compound 100, 1-(4-(1-(1H-Pyrazol-4-yl)piperidin-4-yl)phenyl)pyrrolidin-2-one]	42.90

system: formation of EETs and DiHETs (epoxygenase activity) in HLM; test: Selectivity: inhibition of EETs and DiHETs formation (epoxygenase activity) in HLM; type: biochemical, human; conditions: at 10 μM
Experimental: Selectivity of compounds for inhibition of 20-HETE formation vs inhibition of formation of 8,9-, 11,12-, 14,15-EET and 5,6-, 8,9-, 11,12-, 14,15-DiHETs was assessed via the simultaneous monitor of formation of 20-HETE and those metabolites under the UPLC-MS/MS assay conditions described above using HLM incubations and the same 12 test compound concentrations (0.1 nM-[…]) used for the IC50 determination experiments. At each of the 12 concentrations, the selectivity of 20-HETE inhibition over the other metabolites was compared. Epoxygenase activity was assessed by the sum of EETs and DiHETEs as percentage of control.

SMILES	EETs Inhibition, % @ 10 μM [% @ 10 μM]
Clc1ccc(CC2CCN(c3cn[nH]c3)CC2)cc1 [Compound 93, 4-(4-Chlorobenzyl)-1-(1H-pyrazol-4-yl)piperidine]	50

same assay, conditions: at 50,000 (nM per column head)

SMILES	EETs Inhibition, % @ 50,000
COc1ccc(C2CCN(c3cn[nH]c3)CC2)cc1 [Compound 20, 4-(4-Methoxyphenyl)-1-(1H-pyrazol-4-yl)piperidine]	3.1%@ 50,000

same assay, conditions: sum of EETs and DiHETs

SMILES	IC50 [nM]
c1ccc(C2CCN(c3cn[nH]c3)CC2)cc1 [Compound 1, 4-Phenyl-1-(1H-pyrazol-4-yl)piperidine]	> 10000
c1ccc(CC2CCN(c3cn[nH]c3)CC2)cc1 [Compound 3, 4-Benzyl-1-(1H-pyrazol-4-yl)piperidine]	> 25000
COc1ccc(C2CCN(c3ccn[nH]3)CC2)cc1 [Compound 19, 4-(4-Methoxyphenyl)-1-(1H-pyrazol-5-yl)piperidine]	> 25000
c1ccc(C2CCN(c3ccn[nH]3)CC2)cc1 [Compound 54, 4-Phenyl-1-(1H-pyrazol-5-yl)piperidine]	> 50000
O=C1CCCN1Cc1ccc(C2CCN(c3cn[nH]c3)CC2)cc1 [Compound 83, 1-(4-(1-(1H-Pyrazol-4-yl)piperidin-4-yl)benzyl)pyrrolidin-2-one]	> 50
O=C1CCCN1c1ccc(C2CCN(c3cn[nH]c3)CC2)cc1 [Compound 100, 1-(4-(1-(1H-Pyrazol-4-yl)piperidin-4-yl)phenyl)pyrrolidin-2-one]	> 50

system: 20-HETE formation (CYP4) in RKM; test: Inhibition of 20-HETE formation at 250 or 500 nM in RKM microsomal incubations; type: biochemical, rat; conditions: 250 nM compound; RKM 300 μg/ml
In short: as §1

SMILES	RKM % inh. @ 250 nM [%]
c1ccc(C2CCN(c3cn[nH]c3)CC2)cc1 [Compound 1, 4-Phenyl-1-(1H-pyrazol-4-yl)piperidine]	18.00
c1ccc(C2CCN(c3ccn[nH]3)CC2)cc1 [Compound 54, 4-Phenyl-1-(1H-pyrazol-5-yl)piperidine]	0.00

same assay, conditions: 500 nM compound; RKM 300 μg/ml

SMILES	RKM % inh. @ 500 nM [%]
c1ccc(CC2CCN(c3cn[nH]c3)CC2)cc1 [Compound 3, 4-Benzyl-1-(1H-pyrazol-4-yl)piperidine]	0.00
COc1ccc(C2CCN(c3ccn[nH]3)CC2)cc1 [Compound 19, 4-(4-Methoxyphenyl)-1-(1H-pyrazol-5-yl)piperidine]	0.00
COc1ccc(C2CCN(c3cn[nH]c3)CC2)cc1 [Compound 20, 4-(4-Methoxyphenyl)-1-(1H-pyrazol-4-yl)piperidine]	4.90
CC(=O)N(C)c1ccc(C2CCN(c3cn[nH]c3)CC2)cc1 [Compound 28, N-(4-(1-(1H-Pyrazol-4-yl)piperidin-4-yl)phenyl)-N-methylacetamide]	43.00
Cc1cccc(C2CCN(c3cn[nH]c3)CC2)c1 [Compound 34, 1-(1H-Pyrazol-4-yl)-4-(m-tolyl)piperidine]	36.00
